Among the data in patent US11834417B2, “Compositions for the treatment of hypertension and/or fibrosis” (Vectus Biosystems Limited, priority 2016, dated 2023) are Systolic blood pressure, Myocardial fibrosis and melting point values, retold here.

Data set [1] deals with spontaneous hypertensive rats (SHR). Description: Systolic blood pressure by tail cuff plethysmography in SHR on a 2.2% salt diet. The format is in vivo, rat. The text has this:
Fourteen week old spontaneous hypertensive rats (SHR; Australian Animal Resources Centre, WA) on a 2.2% salt diet (Glenn Forrest Stockfeeders, WA) were randomized to the following treatment groups: 14-week control, or VB0002 infusion (20 pmol/kg/min in 20% DMSO) or vehicle control infusion (20% DMSO) for 4 weeks. VB0002 and vehicle control infusions were via Alzet osmotic minipump, which was inserted under general anaesthesia (Isoflurane 3% in oxygen) at 14 weeks. […]
(§1) The 14-week control group were anaesthetized using isoflurane (3%) delivered in oxygen, then had blood sampled and hearts and kidneys harvested for quantitation of fibrosis. The remaining groups were weighed and had blood pressure measured by tail cuff plethysmography (ADI Instruments) twice weekly for a further 4 weeks. After 4 weeks treatment, rats were anaesthetized and samples collected as per the 14-week control group. Results are mean±sem for n=5 rats per group.

The test system is the same in data set [2]. Description: Myocardial fibrosis quantitation (Masson's Trichrome) in SHR on a 2.2% salt diet. In kind it is in vivo, rat. Conditions: 4 weeks.
Text: Fourteen week old spontaneous hypertensive rats (SHR; Australian Animal Resources Centre, WA) on a 2.2% salt diet (Glenn Forrest Stockfeeders, WA) were randomized to the following treatment groups: 14-week control, or VB0002 infusion (20 pmol/kg/min in 20% DMSO) or vehicle control infusion (20% DMSO) for 4 weeks. VB0002 and vehicle control infusions were via Alzet osmotic minipump, which was inserted under general anaesthesia (Isoflurane 3% in oxygen) at 14 weeks.
Fourteen week old spontaneous hypertensive rats on a 2.2% salt diet were also randomized to the following treatment groups: 14-week control, or VB0003 administration (10, 100 or 500 pmol/kg/min in 5% ethanol), VB0005 administration (100 pmol/kg/min in 5% ethanol) or drinking solution (5% ethanol) administration for 4 weeks.
as §1
For quantitation of fibrosis, tissue slices ≤3 mm thick were fixed in 10% buffered formalin for 24 hours, processed and embedded in paraffin. Three μm transverse sections were stained using Masson's Trichrome. A minimum of 20 random fields at 40× magnification from transverse sections ([…]) were digitized. The degree of fibrosis was determined as a percent of field area of each digitized image using Image-Pro Plus V.5 (Media Cybernetics, Bethesda, Md., USA), and then averaged to determine the level of fibrosis for each rat.

Where [3] appears, read: in 5% ethanol in the drinking solution for 4 weeks (FIG. 9:), compared to 18 week controls (p<0.0005).
Where [4] appears, read: 100 pmol/kg/min in drinking solution (5% ethanol), compared to 14 week controls.
[5] abbreviates: 100 pmol/kg/min in drinking solution (5% ethanol), compared to 18 week controls.

The melting point is the temperature, or range, at which the solid turns liquid.

With `NC(=O)CC[C@H]1CN(c2ccccc2)CCN1c1cccc(O)c1` [VB0005, (S)-3-[1-(3-Hydroxy)phenyl-4-phenylpiperazin-2-yl]propanamide], the Systolic blood pressure entry in data set [1] (setting [3]) is listed as “reduced”. The Myocardial fibrosis entry in data set [2] (setting [4]) and in data set [2] (setting [5]) was “reduced” throughout.
Take `NC(=O)Cc1c(Cc2ccccc2)ncn1Cc1cccc(O)c1` [VB0002, 2-[4-Benzyl-1-(3-hydroxybenzyl)-1H-imidazol-5-yl]acetamide]: the melting point was 249 °C (dec.). In data set [1] (in 20% DMSO intravenously via osmotic minipump for 4 weeks, compared to 18 week controls (FIG. 8, p<0.005)), the Systolic blood pressure result is “reduced”. Also, the Myocardial fibrosis result in data set [2] (20 pmol/kg/min infusion via osmotic minipump, compared to 14 week controls (FIG. 10)) is reported as “reduced”. The Myocardial fibrosis entry in data set [2] (20 pmol/kg/min infusion via osmotic minipump, compared to 18 week controls (FIG. 10)) is “reduced”.
Consider `CC(O)Cc1c(-c2ccccc2)ncn1Cc1cccc(O)c1` (centres unmarked) [VB0003, 3-[5-(2-hydroxypropyl)-4-phenyl-imidazol-1-ylmethyl]-phenol], for which, in data set [1] (setting [3]), the Systolic blood pressure entry is “reduced”. Further, the Myocardial fibrosis result in data set [2] (10 pmol/kg/min in drinking solution (5% ethanol), compared to 18 week controls) is on record as “reduced”; in data set [2] (setting [4]) it was “reduced”; in data set [2] (setting [5]), “reduced”; in data set [2] (500 pmol/kg/min in drinking solution (5% ethanol), compared to 14 week controls), “reduced”; in data set [2] (500 pmol/kg/min in drinking solution (5% ethanol), compared to 18 week controls), “reduced”.
The compound `CC(O)Cc1c(-c2ccccc2)ncn1Cc1cccc(O)c1.Cl` (centres unmarked) showed a melting point of 84 to 88 °C.
